Each structure is given as a SMILES string. Structures can show the parent of a compound that is named as a salt. Where only a bound is given, the exact number is not on record here.

The target of this assay is T1, human cloned 5-HT6 receptors (Homo sapiens, UniProt P50406).
T1 construct: expressed in transfected cells; host or cells: HeLa cells
T1 sequence (P50406 whole entry): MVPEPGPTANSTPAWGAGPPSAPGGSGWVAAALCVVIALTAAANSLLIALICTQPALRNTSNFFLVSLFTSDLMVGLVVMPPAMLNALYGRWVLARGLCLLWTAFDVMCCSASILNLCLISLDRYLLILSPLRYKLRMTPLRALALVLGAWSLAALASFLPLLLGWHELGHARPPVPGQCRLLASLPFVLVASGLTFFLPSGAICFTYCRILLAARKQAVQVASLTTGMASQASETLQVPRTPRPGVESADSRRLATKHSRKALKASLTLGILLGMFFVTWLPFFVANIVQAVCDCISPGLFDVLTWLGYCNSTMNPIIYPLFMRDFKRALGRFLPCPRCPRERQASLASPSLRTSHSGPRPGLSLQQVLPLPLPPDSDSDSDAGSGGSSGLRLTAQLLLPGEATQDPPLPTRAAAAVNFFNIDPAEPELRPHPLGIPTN
Description: 5-HT6 binding affinity, [3H]-LSD displacement. Particulars: membranes of Hela cells expressing human cloned 5-HT6 receptors; [3H]-LSD 3.0 nM; 120 minutes at room temperature. As to the method: The affinity of test compounds for the serotonin 5-HT6 receptor was evaluated in the following manner. Cultured Hela cells expressing human cloned 5-HT6 receptors were harvested and centrifuged at low speed (1,000×g) for 10.0 minutes to remove the culture media. The harvested cells were suspended in half volume of fresh physiological phosphate buffered saline solution and recentrifuged at the same speed. This operation was repeated. The collected cells were then homogenized in ten volumes of 50 mM Tris.HCl (pH 7.4) and 0.5 mM EDTA. The homogenate was centrifuged at 40,000×g for 30.0 min and the precipitate was collected. The obtained pellet was resuspended in 10 volumes of Tris.HCl buffer and recentrifuged at the same speed. The final pellet was suspended in a small volume of Tris.HCl buffer and the tissue protein content was determined in aliquots of 10-25 μl volumes. […] The volume of the suspended cell membranes was adjusted to give a tissue protein concentration of 1.0 mg/ml of suspension. The prepared membrane suspension (10 times concentrated) was aliquoted in 1.0 ml volumes and stored at −70° C. until used in subsequent binding experiments.
The bound complex caught on the filter disk was allowed to air dry and the radioactivity is measured in a Packard TopCount® equipped with six photomultiplier detectors, after the addition of 40.0 μl Microscint®-20 scintillant to each shallow well. The unifilter plate was heat-sealed and counted in a PackardTopCount® with a tritium efficiency of 31.0%.
Specific binding to the 5-HT6 receptor was defined as the total radioactivity bound less the amount bound in the presence of 10.0 μM unlabeled methiothepin. Binding in the presence of varying concentrations of test compound was expressed as a percentage of specific binding in the absence of test compound. The results were plotted as log % bound versus log concentration of test compound. […] A linear regression line of data points was plotted, from which the IC50 value is determined and the Ki value is determined based upon the following equation: Ki=IC50/(1+L/KD) where L was the concentration of the radioactive ligand used and KD is the dissociation constant of the ligand for the receptor, both expressed in nM.
Turning to `CN(C)CCOc1ccc2c(S(=O)(=O)c3cccc4ccccc34)n[nH]c2c1` [Example 148], the Ki was > 45 nM.
`CCCCNCCOc1ccc2[nH]nc(S(=O)(=O)c3cccc4ccccc34)c2c1` [Example 34, Butyl-{2-[3-(naphthalene-1-sulfonyl)-1H-indazol-5-yloxy]-ethyl}-amine] registered a Ki of 0.01 to 10 nM.
On to `NCCOc1cccc2c(S(=O)(=O)c3ccccc3)n[nH]c12` [Example 139], for which the Ki is 0.01 to 10 nM.
As to `CNCCOc1cc(F)cc2c(S(=O)(=O)c3cccc4ccccc34)nn(Cc3cccc(Cl)c3)c12` [Example 107, (2-{[1-(3-chlorobenzyl)-5-fluoro-3-(1-naphthylsulfonyl)-1H-indazol-7-yl]oxy}ethyl)methylamine Hydrochloride], the Ki was > 45 nM.
`O=S(=O)(c1ccccc1)c1n[nH]c2c(OCCN3CCCCC3)cccc12` [Example 93] gave a Ki of 0.01 to 10 nM.
The same measure for `O=S(=O)(c1ccccc1)c1n[nH]c2ccc(OCCN3CCCC3)cc12` [Example 11, 3-Benzenesulfonyl-5-(2-pyrrolidin-1-yl-ethoxy)-1H-indazole]: 0.01 to 10 nM; for `CNCCCOc1cccc2c(S(=O)(=O)c3cccc4ccccc34)nn(Cc3cccc(Cl)c3)c12` [Example 128]: > 45 nM.
`CCN(CC)CCOc1cccc2c(S(=O)(=O)c3ccccc3)n[nH]c12` [Example 90] had a Ki of 0.01 to 10 nM.
For `N[C@@H]1CCN(Cc2ccc3[nH]nc(S(=O)(=O)c4cccc5ccccc45)c3c2)C1` [Example 201], the Ki fell in the range of 0.01 to 10 nM.
As to `CN(C)CCOc1cc(F)cc2c(S(=O)(=O)c3cccc4ccccc34)nn(Cc3cccc(Cl)c3)c12` [Example 109], the Ki is 11 to 25 nM.
For the compound `CCN(CC)CCOc1cccc2c(S(=O)(=O)c3ccccc3)nn(Cc3cccc(Cl)c3)c12` [Example 84], the inhibition constant Ki was > 45 nM.
Consider `O=S(=O)(c1cccc2ccccc12)c1n[nH]c2ccc(OCCN3CCCCC3)cc12` [Example 38, 3-(Naphthalene-1-sulfonyl)-5-(2-piperidin-1-yl-ethoxy)-1H-indazole], for which the Ki is 0.01 to 10 nM.
In the case of `CCN(CC)CCOc1ccc2[nH]nc(S(=O)(=O)c3ccccc3)c2c1` [Example 5, [2-(3-Benzenesulfonyl-1H-indazol-5-yloxy)-ethyl]-diethyl-amine], the Ki is 36 to 45 nM.
For `NCCCCc1ccc2[nH]nc(S(=O)(=O)c3cccc4ccccc34)c2c1` [Example 189, {4-[3-(Naphthylsulfonyl)-1H-indazol-5-yl]butyl}amine hydrochloride], the Ki is 0.01 to 10 nM.
On to `O=S(=O)(c1cccc2ccccc12)c1nn(Cc2ccccc2)c2ccc(OCCN3CCCC3)cc12` [Example 52, 1-Benzyl-3-(naphthalene-1-sulfonyl)-5-(2-pyrrolidin-1-yl-ethoxy)-1H-indazole], for which the Ki was > 45 nM.
The same measure for `CCNCCCOc1cccc2c(S(=O)(=O)c3cccc4ccccc34)n[nH]c12` [Example 135]: 36 to 45 nM; for `CNCCOc1ccc2[nH]nc(S(=O)(=O)c3ccccc3)c2c1` [Example 12, [2-(3-Benzenesulfonyl-1H-indazol-5-yloxy)-ethyl]-methyl-amine]: 11 to 25 nM; for `CCN(CC)CCOc1cc(F)cc2c(S(=O)(=O)c3cccc4ccccc34)n[nH]c12` [Example 116]: 11 to 25 nM.
To `O=S(=O)(c1cccc2ccccc12)c1nn(Cc2cccc(Cl)c2)c2c(OCCCN3CCCCC3)cccc12` [Example 132] belongs 26 to 35 nM.
Compound `O=S(=O)(c1cccc2ccccc12)c1n[nH]c2ccc(OCCN3CCCC3)cc12` [Example 37, 3-(Naphthalene-1-sulfonyl)-5-(2-pyrrolidin-1-yl-ethoxy)-1H-indazole] came in with a Ki of 0.01 to 10 nM.
`COc1cc(OCCN(C)C)c2[nH]nc(S(=O)(=O)c3cccc4ccccc34)c2c1` [Example 125] came in with a Ki of 11 to 25 nM.
Turning to `CC(C)NCCCOc1ccc2[nH]nc(S(=O)(=O)c3cccc4ccccc34)c2c1` [Example 22, Isopropyl-{3-[3-(naphthalene-1-sulfonyl)-1H-indazol-5-yloxy]-propyl}-amine], the Ki is 0.01 to 10 nM.
`COc1cc(OCCN2CCCCC2)c2c(c1)c(S(=O)(=O)c1cccc3ccccc13)nn2Cc1cccc(Cl)c1` [Example 122]: the Ki is 0.01 to 10 nM.
On to `Cn1nc(S(=O)(=O)c2cccc3ccccc23)c2cccc(OCCN3CCCC3)c21` [Example 100], for which the inhibition constant Ki was 11 to 25 nM.
For the compound `CNCCOc1cccc2c(S(=O)(=O)c3ccccc3)nn(Cc3cccc(Cl)c3)c12` [Example 82], the Ki was 11 to 25 nM.
The compound `CNCCOc1ccc2[nH]nc(S(=O)(=O)c3cccc4ccccc34)c2c1` [Example 31, Methyl-{2-[3-(naphthalene-1-sulfonyl)-1H-indazol-5-yloxy]-ethyl}-amine] had an inhibitory constant (Ki) of 0.01 to 10 nM.
For the compound `CN(C)CCOc1ccc2[nH]nc(S(=O)(=O)c3cccc4ccccc34)c2c1` [Example 27, Dimethyl-{2-[3-(naphthalene-1-sulfonyl)-1H-indazol-5-yloxy]-ethyl}-amine], the Ki is 0.01 to 10 nM.
Regarding `CCN(CC)CCOc1ccc2c(c1)c(S(=O)(=O)c1cccc3ccccc13)nn2Cc1cccc(Cl)c1` [Example 56, {2-[1-(3-Chloro-benzyl)-3-(naphthalene-1-sulfonyl)-1H-indazol-5-yloxy]-ethyl}-diethyl-amine], the Ki is > 45 nM.
Compound `CNCCOc1cc(F)cc2c(S(=O)(=O)c3cccc4ccccc34)n[nH]c12` [Example 113] had a Ki of 0.01 to 10 nM.
The same measure for `CN(C)CCCOc1cccc2c(S(=O)(=O)c3cccc4ccccc34)n[nH]c12` [Example 136]: 36 to 45 nM; for `CNCCOc1cccc2c(S(=O)(=O)c3cccc4ccccc34)nn(Cc3cccc(Cl)c3)c12` [Example 70, (2-{[1-(3-Chlorobenzyl)-3-(1-naphthylsulfonyl)-1-H-indazol-7-yl]oxy}ethyl) methylamine]: 11 to 25 nM.
The same measure for `NCCOc1ccc2[nH]nc(S(=O)(=O)c3ccccc3)c2c1` [Example 13, 2-(3-Benzenesulfonyl-1H-indazol-5-yloxy)-ethylamine]: 36 to 45 nM.
To `NCCC(=O)Nc1ccc2[nH]nc(S(=O)(=O)c3cccc4ccccc34)c2c1` [Example 158, 3-Amino-N-[3-(naphthalene-1-sulfonyl)-1H-indazol-5-yl]-propionamide hydrochloride] belongs 0.01 to 10 nM; to `CC(C)NCCCc1ccc2[nH]nc(S(=O)(=O)c3ccccc3)c2c1` [Example 179, N-Isopropyl-N-{3-[3-(phenylsulfonyl)-1H-indazol-5-yl]propyl}amine trifluoroacetate], > 45 nM; to `NCCCc1ccc2[nH]nc(S(=O)(=O)c3ccccc3)c2c1` [Example 180, {3-[3-(Phenylsulfonyl)-1H-indazol-5-yl]propyl}amine trifluoroacetate], 11 to 25 nM.
In turn, `CC1CN(Cc2ccc3[nH]nc(S(=O)(=O)c4cccc5ccccc45)c3c2)CCN1` (centres unmarked) [Example 197] showed a Ki of 0.01 to 10 nM.
To `CCN(CC)CCOc1cc(F)cc2c(S(=O)(=O)c3cccc4ccccc34)nn(Cc3cccc(Cl)c3)c12` [Example 110] belongs > 45 nM; to `NCCNc1ccc2[nH]nc(S(=O)(=O)c3cccc4ccccc34)c2c1` [Example 157, N1-[3-(Naphthalene-1-sulfonyl)-1H-indazol-5-yl]-ethane-1,2-diamine dihydrochloride], 0.01 to 10 nM.
`CC(C)NCCOc1ccc2c(c1)c(S(=O)(=O)c1cccc3ccccc13)nn2Cc1cccc(Cl)c1` [Example 57, {2-[1-(3-Chloro-benzyl)-3-(naphthalene-1-sulfonyl)-1H-indazol-5-yloxy]-ethyl}-isopropyl-amine] gave a Ki of 36 to 45 nM.
To `CCNCCCOc1ccc2[nH]nc(S(=O)(=O)c3cccc4ccccc34)c2c1` [Example 16, Ethyl-{3-[3-(naphthalene-1-sulfonyl)-1H-indazol-5-yloxy]-propyl}-amine] belongs 0.01 to 10 nM; to `NCCOc1cccc2c(S(=O)(=O)c3cccc4ccccc34)n[nH]c12` [Example 76, (2-{[3-(1-naphthylsulfonyl)-1-H-indazol-7-yl]oxy}ethyl)amine], 0.01 to 10 nM.
`O=S(=O)(c1ccccc1)c1n[nH]c2ccc(OCCNC3CCCC3)cc12` [Example 9, 3-Benzenesulfonyl-5-(2-cyclopentyl-1-yl-ethoxy)-1H-indazole]: the Ki fell in the range of 11 to 25 nM.
For `O=S(=O)(c1ccccc1)c1n[nH]c2ccc(OCCN3CCOCC3)cc12` [Example 10, 3-Benzenesulfonyl-5-(2-morpholin-4-yl-ethoxy)-1H-indazole], the Ki is > 45 nM.
In the case of `CN(C)CCc1cccc2c(S(=O)(=O)c3ccccc3)n[nH]c12` [Example 171, N,N-Dimethyl-N-{2-[3-(phenylsulfonyl)-1H-indazol-7-yl]ethyl}amine hydrochloride], the inhibitory constant (Ki) fell in the range of 0.01 to 10 nM.

The term Ki denotes the equilibrium dissociation constant of an inhibitor or competing ligand from its target. High values mean lower affinity, low ones higher affinity.

Values taken from patent US7723329B2, “Substituted-3-sulfonylindazole derivatives as 5-hydroxytryptamine-6 ligands” (Wyeth LLC, priority 2005, dated 2010).
